Results published in US7968543B2 (priority 2007, dated 2011).
Entries after “also recorded” stand apart in the source; their conditions may differ. Where two headings read alike, the source gives them in different places.

Tests used:
[1] = system: subcutaneous MV4-11 tumors
Method: Xenograft was initiated from MV4-11 FLT3-dependent human leukemia cells cultured in Iscove's Modified Dulbecco's medium supplemented with 10% heat-inactivated fetal bovine serum, 100 units/mL penicillin G, 100 μg/mL streptomycin sulfate, 0.25 μg/mL amphotericin B, 2 mM glutamine, 0.075% sodium bicarbonate, and 25 μg/mL gentamicin. Tumor cells were maintained in humidified atmosphere of 95% air and 5% CO2 at 37° C. The cells were harvested during logarithmic phase growth and resuspended at a concentration of 5×10^7 cells/mL in 50% Matrigel matrix (BD Biosciences) and 50% PBS. MV4-11 cells (1×10^7) were implanted subcutaneously into the right flank of each test mouse and the growth of tumors was monitored. Twelve days later, on Day 1 of the study, mice were placed in eight groups each consisting of ten mice with individual tumor sizes of 126 to 221 mm^3 and group mean tumor size of 174 mm^3, tumor volume calculated as a product of width×width×length in mm of an MV4-11 tumor. […] Each dose of drug was given in a volume of 0.2 mL per 20 g of body weight (10 mL/kg) and was adjusted for the body weight of the animal. Each animal was sacrificed when its tumor reached the predetermined endpoint size of 1,000 mm^3 or on the last day of the study (Day 59), whichever came first.
In a follow-on study at the 10 mg/kg oral dose, tumor size was monitored for an additional 60 days after dosing was discontinued.

[2] = Ninety-day toxicity study in rats; assay type: in vivo, rat
Method: (§1) For rats, the compound was administered at a dose of 1, 3, or 10 mg/kg/day.

[3] = Ninety-day toxicity study in dogs; assay type: in vivo, dog
Method: as §1
For dogs, the compound was administered at a dose of 1, 5, or 15 mg/kg/day.

[4] = Phase I clinical trial, safety and tolerability
Text: (§2) The study was open labeled and designed to determine the safety, tolerability, dose limiting toxicity (DLT), pharmacokinetics and pharmacodynamics of escalating doses. […] If two or more patients in the expanded cohort experiences first course DLT, no further patients will enroll at that dose and the next lower dose level will be declared the maximum tolerated dose (MTD). Primary endpoints for the study are safety, tolerability, dose limiting toxicity (DLT), and PK. Secondary endpoint is PD.

[5] = system: relapsed or refractory acute myeloid leukemia; conditions: for Efficacy: Human, by comparison with efficacious exposure in mice
Text: as §2

RS4-11 cell line = conditions: read-out: IC50 (nM), Proliferation, RS 4, 48 hour incubation
[6] = mouse, in vivo, 1 mg/kg
[7] = in vivo
in vivo = conditions: mouse, plasma, oral, 1 mg/kg
clinical = conditions: human, in vivo; for AUC(0-t): SS AUC0-24 (ng * h/mL)
[8] = Mouse oral pharmacokinetics / exposure
[9] = Phase I clinical trial, human oral pharmacokinetics; conditions: in vivo, 12 mg
[10] = follow-on study, 10 mg/kg oral, monitored 60 days after dosing discontinued, ten animals

CC(C)(C)c1cc(NC(=O)Nc2ccc(-c3cn4c(n3)sc3cc(OCCN5CCOCC5)ccc34)cc2)no1 [compound of Formula I, N-(5-tert-butyl-isoxazol-3-yl)-N′-{4-[7-(2-morpholin-4-yl-ethoxy)imidazo[2,1-b][1,3]benzothiazol-2-yl]phenyl}urea]
tumor response ([1]; 1 mg/kg (3 mg/m^2, p.o., QD)): tumor growth inhibition
tumor response ([1]; 3 mg/kg p.o. QD for 28 days): tumor regression
tumor response ([1]; 10 mg/kg p.o. QD for 28 days): tumor regression
Efficacy ([1]; Mouse, 1 mg/kg): Yes
complete responses [1, 10]: eight
partial responses [1, 10]: two
elevations in liver function tests (LFTS) ([2]; high dose (10 mg/kg/day)): 2- to 3 folds
neutropenia ([2]; high dose (very mild anemia)): Sustained neutropenia
clinical signs ([2]; low and middle doses (1, 3 mg/kg/day), 90 days): No significant clinical signs were observed
AUC at 90 days ([2]; rat, in vivo, 10 mg/kg/day, high dose, read-out: AUC at which LFT elevations were produced): ≥ 30 µM·h
half-life ([2]; rat, in vivo, read-out: terminal half-life (converted)): 5.7 h
AUC ([3]; dog, in vivo, 15 mg/kg/day, high dose, read-out: AUC at which LFT elevations were produced): ≥ 30 µM·h
half-life ([3]; dog, in vivo, read-out: terminal half-life (converted)): 5.9 h
weight gain suppression ([3]; high dose): 10%
elevations in liver function tests (LFTS) ([3]; high dose (15 mg/kg/day)): 3 to 6 folds
neutropenia ([3]; high dose (very mild anemia)): Sustained neutropenia
clinical signs ([3]; low and middle doses (1, 5 mg/kg/day), 90 days): No significant clinical signs were observed
deaths ([4]; Cohorts 1 and 2, one unrelated fungal infection, one congestive heart failure possibly drug related): Two
Grade 1 (mild) drug-related adverse events: instance of cough ([4]; human, in vivo): one
Grade 1 (mild) drug-related adverse events: instance of decreased appetite ([4]; human, in vivo): one
Grade 1 (mild) drug-related adverse events: instance of disgeusia ([4]; human, in vivo): one
Grade 1 (mild) drug-related adverse events: instances of abdominal distension/constipation ([4]; human, in vivo): two
Grade 1 (mild) drug-related adverse events: instances of nausea/vomiting ([4]; human, in vivo): two
dose limiting toxicity (DLT) ([4]; human, in vivo): reported as a DLT
grade of other possibly drug-related AEs ([4]; human, in vivo): ≤ 2 grade
hematological toxicity ([4]; human, in vivo): no hematological toxicity was observed
MTD ([4]; up to 450 mg/day, either schedule): has not yet been observed
hematological improvement ([5]; Cohort 2, 18 mg, individual patients): major hematological improvement; also recorded: minor hematological improvement
Efficacy ([5]; 12 mg): Possible
Efficacy ([5]; 18 mg): Possible
patients with hematological improvement ([5]; cohort 2 (18 mg)): three
patients with complete response (CR) ([5]; first 45 pts): Four
responders that were WT ([5]; human, in vivo): five
non-responding patients with ITD mutations with initial rapid clearing of peripheral blasts ([5]; intermittent dosing): Six of the 9
IC50 (RS4-11 cell line): 1000 nM
ΔT [6]: 6 h
duration of steady state exposure ([7]; human): 24 h
plasma exposure versus dose ([7]; human): dose proportional
bioavailability in humans ([7]; human, po, 12 mg): good bioavailability
human bioavailability ([7]; 18 mg): good human bioavailability
AUC (in vivo): ~3.2 µM·h
AUC(0-t) (in vivo): 1790 ng·h/mL
half-life (clinical; 12 mg): ~67.2 h
AUC(0-t) (clinical; 12 mg): 757 ng·h/mL
half-life (clinical; 18 mg): 24 to 67.2 h
AUC(0-t) (clinical; 18 mg): 1380 ng·h/mL
SS Cp ([8]; Mouse, 1 mg/kg): 143 ng/mL
efficacious plasma levels over the MV4;11 IC50 ([8]; mice, efficacious dose 1 mg/kg): about 800 fold
duration of steady state exposure ([8]; mouse): 6 h
Cmax [9]: 11.2 ng/mL
